Test results: article PMC8784342, “Investigation of sugar binding kinetics of the E. coli sugar/H^+ symporter XylE using solid-supported membrane-based electrophysiology” (The Journal of Biological Chemistry, 2021)
Marks after values point to notes of the source that are not given here.

Key:
wt FucP [1] = molecular target: T1, wt FucP (Escherichia coli, UniProt P11551); assay: SSM-based electrophysiology, proteoliposomes with wt FucP; type: biochemical
T1 construct: made in house; host or cells: E. coli BL21 DE3
T1 sequence (P11551 1-438): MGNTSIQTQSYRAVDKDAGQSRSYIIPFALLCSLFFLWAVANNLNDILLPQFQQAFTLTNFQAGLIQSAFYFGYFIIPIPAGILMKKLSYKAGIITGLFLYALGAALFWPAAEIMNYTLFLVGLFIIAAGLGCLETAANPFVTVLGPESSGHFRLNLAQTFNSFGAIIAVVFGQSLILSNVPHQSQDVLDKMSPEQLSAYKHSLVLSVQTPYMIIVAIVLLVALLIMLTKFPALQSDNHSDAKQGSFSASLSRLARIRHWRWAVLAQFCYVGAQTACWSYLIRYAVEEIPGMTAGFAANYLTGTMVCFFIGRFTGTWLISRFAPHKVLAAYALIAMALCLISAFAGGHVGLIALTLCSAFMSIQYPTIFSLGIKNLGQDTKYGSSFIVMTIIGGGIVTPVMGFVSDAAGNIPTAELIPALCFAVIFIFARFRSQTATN
Procedure: (§1) Reconstitution of purified proteins (2–20 mg/ml) was carried out with E. coli phospholipids (Avanti Polar Lipids, E. coli polar lipid extract). Preformed liposomes (0.2–2 ml, 10 mg/ml) were dissolved in 1% (w/v) n-octyl-β-D-glucoside, and the protein suspension was mixed on ice to a concentration of 0.2 mg protein/mg lipid (LPR 5).
(§2) Wt XylE, wt FucP, and the mutant proteins were reconstituted using overnight incubation in 400 mg/ml BioBeads (SM-2 Adsorbent Media, Bio-Rad) at 4 °C. After reconstitution, the samples were diluted to 2.5 mg/ml lipid concentration, frozen in liquid nitrogen, and stored at −80 °C. For wt LacY and mutant proteins, this procedure was not successful. We, therefore, applied the previously established n-octyl-β-D-glucoside dilution method (1:100) ([69]).
(§3) SSM measurements were performed as described ([20], [23]). After thawing the sample and sonication in a water bath, 30 μl of proteoliposomes (2.5 mg/ml lipid at LPR 5) was allowed to adsorb for 1 to 2 h to an octadecanethiol/phosphatidylcholine hybrid bilayer on a gold surface (the sensor).
(§4) For measurements, a single solution exchange configuration ([23]) was employed that consisted in three phases of 0.5 s duration each: Flow of nonactivating solution (NA), activating solution (A), and nonactivating solution (NA). Only the activating solution contained the sugar. When pH dependence is determined, pH of NA and A solutions during one experiment are kept constant. Between experiments using different pH values, the sensor was incubated at the new pH for 3 min to equilibrate the intraliposomal pH.
(§5) Instruments with different time resolution were used as required. […] Currents were recorded throughout the entire time and amplified with a current amplifier set to a gain of […] and a rise time of 10 ms (low time-resolution set up) or 3 ms (high time-resolution set up).
(§6) All NA solutions were buffered in 100 mM KPi at a given pH value. NA solutions used with LacY contained 1 mM DTT in addition. A solutions were made from NA solutions by adding the respective sugar at a given concentration to induce the symport reaction. Sugar concentration jumps initiated sugar-proton symport, and charge transfer was measured by capacitive coupling. Therefore, only transient currents were recorded.
(§7) Each dataset represented with error bars was generated by performing the same experiment on multiple sensors (n ≥ 3). Error bars represent standard deviations of the average value. When peak currents are averaged across sensors, datasets are normalized before averaging. When the protein catalyzes transport and PSS currents are negligible, the peak current of the transient represents a good approximation of the current generated by the steady-state symport activity of the transporter. In most cases, peak currents have been used to derive kinetic and thermodynamic parameters according to the equations given in Figure 2 (KM, Imax ∼ Vmax, Hill coefficient n), Figure 4 (KD and rate constants for sugar binding kon and release koff), and Figure 6 (pKa for proton binding and pKb for proton release). Reconstruction of transporter currents for analysis of biphasic currents has been performed as described previously ([70]). This is required when transport and PSS currents are observed at the same time.

D46N FucP = molecular target: T2, D46N FucP (Escherichia coli, UniProt P11551, D46N); assay: SSM-based electrophysiology, transport-deficient mutant D46N FucP (PSS currents); type: biochemical
T2 construct: made in house; host or cells: E. coli BL21 DE3
T2 sequence (P11551 whole entry D46N): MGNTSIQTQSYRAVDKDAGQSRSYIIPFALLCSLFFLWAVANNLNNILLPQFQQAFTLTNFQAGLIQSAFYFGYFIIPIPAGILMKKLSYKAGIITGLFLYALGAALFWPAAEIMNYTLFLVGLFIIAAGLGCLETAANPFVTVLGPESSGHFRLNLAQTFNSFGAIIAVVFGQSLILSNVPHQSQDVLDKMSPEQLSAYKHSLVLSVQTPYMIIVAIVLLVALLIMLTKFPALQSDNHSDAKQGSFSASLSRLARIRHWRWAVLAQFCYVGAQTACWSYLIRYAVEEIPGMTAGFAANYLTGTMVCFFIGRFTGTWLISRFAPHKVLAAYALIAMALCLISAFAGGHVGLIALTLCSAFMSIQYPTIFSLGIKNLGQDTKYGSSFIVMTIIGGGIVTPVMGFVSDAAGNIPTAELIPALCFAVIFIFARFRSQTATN
Procedure: as §1, §2, §3, §4, §5, §6, §7

wt FucP [2] = molecular target: T1, wt FucP; settings: pH 7.6, main substrate, cited from earlier work
FucP = test system: FucP; set-up: method as in PMID 2829831, PMID 8384447; settings: radioactively labeled sugars; read-out: KM, literature; cited from earlier work
wt LacY [3] = molecular target: T3, wt LacY (Escherichia coli, UniProt P02920); assay: SSM-based electrophysiology, proteoliposomes with wt LacY; type: biochemical; settings: pH 5.0; 100 mM substrate
T3 construct: made in house; host or cells: E. coli XL1-Blue
T3 sequence (P02920 1-417): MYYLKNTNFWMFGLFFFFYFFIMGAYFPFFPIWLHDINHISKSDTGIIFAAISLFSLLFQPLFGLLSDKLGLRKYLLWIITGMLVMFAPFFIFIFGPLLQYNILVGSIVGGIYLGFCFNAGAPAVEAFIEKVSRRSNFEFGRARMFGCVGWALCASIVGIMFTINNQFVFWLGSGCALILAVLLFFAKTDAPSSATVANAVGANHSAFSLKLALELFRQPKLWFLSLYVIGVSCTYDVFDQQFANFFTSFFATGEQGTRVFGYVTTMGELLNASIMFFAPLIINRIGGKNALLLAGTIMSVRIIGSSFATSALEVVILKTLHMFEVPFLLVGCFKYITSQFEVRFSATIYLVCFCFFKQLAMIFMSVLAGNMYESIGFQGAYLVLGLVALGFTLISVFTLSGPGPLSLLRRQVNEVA
Procedure: as §1, §2, §3, §4, §5, §6, §7

E325A LacY = molecular target: T4, E325A LacY (Escherichia coli, UniProt P02920, E325A); assay: SSM-based electrophysiology, transport-deficient mutant E325A LacY (PSS currents, electrogenic binding); type: biochemical
T4 construct: made in house; host or cells: E. coli XL1-Blue
T4 sequence (P02920 whole entry E325A): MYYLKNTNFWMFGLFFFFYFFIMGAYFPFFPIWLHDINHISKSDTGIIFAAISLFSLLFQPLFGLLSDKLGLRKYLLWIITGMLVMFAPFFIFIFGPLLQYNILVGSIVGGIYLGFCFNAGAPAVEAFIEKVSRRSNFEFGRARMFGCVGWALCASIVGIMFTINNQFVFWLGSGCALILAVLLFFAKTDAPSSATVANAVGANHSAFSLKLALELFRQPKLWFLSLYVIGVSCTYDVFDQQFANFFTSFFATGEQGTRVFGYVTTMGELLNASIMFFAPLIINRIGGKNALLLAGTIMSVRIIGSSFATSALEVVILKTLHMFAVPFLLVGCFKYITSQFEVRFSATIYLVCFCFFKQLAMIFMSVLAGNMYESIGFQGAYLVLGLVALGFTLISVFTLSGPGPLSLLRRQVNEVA
Procedure: as §1, §2, §3, §4, §5, §6, §7

wt LacY [4] = molecular target: T3, wt LacY; settings: pH 7.6, main substrate, cited from earlier work
LacY = settings: cited from earlier work
single-Cys LacY = molecular target: single-Cys LacY; set-up: method as in PMID 7918438, PMID 15304639; settings: read-out: KD, protection against labeling; cited from earlier work
wt XylE = wt XylE (Escherichia coli, UniProt P0AGF4); assay: biochemical; set-up: made in house; host or cells: E. coli BL21 DE3; settings: pH 7.0
Chain of wt XylE (P0AGF4 whole entry): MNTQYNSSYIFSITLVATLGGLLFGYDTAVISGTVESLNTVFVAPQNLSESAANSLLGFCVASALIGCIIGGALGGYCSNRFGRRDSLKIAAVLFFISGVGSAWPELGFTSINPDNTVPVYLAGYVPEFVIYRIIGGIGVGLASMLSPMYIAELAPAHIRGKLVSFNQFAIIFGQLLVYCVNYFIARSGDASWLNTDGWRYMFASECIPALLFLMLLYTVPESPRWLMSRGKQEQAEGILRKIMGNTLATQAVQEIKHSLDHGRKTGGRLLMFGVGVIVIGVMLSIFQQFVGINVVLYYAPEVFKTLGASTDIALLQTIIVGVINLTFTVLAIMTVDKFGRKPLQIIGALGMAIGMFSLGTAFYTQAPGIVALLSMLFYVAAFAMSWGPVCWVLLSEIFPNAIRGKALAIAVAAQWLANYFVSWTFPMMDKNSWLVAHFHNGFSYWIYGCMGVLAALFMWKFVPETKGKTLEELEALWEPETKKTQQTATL
Procedure: as §1, §2, §3, §4, §5, §6, §7

[5] = read-out: KM (mM) Michaelis–Menten equation

L-fucose
KM lower than KM obtained for minor substrates (wt FucP [1]; pH 7.6): 7–12 fold
Q (pC) wt, PSS transferred charge (wt FucP [1]; pH 10.5, 30 mM substrate, rough estimation): ∼0.5 ^b (pH 10.5) pC
induction of PSS currents (D46N FucP): induces PSS currents
kobs (s^−1) mut (D46N FucP; 30 mM substrate, low time-resolution set up): 100 ± 20 ^a s^−1
Q (pC) Mut, transferred charge (D46N FucP; pH 10.5, 30 mM substrate): −1.2 ± 0.6 (pH 10.5) pC
Imax (wt FucP [2]): 0.5 ± 0.2 nA
Km (wt FucP [2]; [5]): 0.9 ± 0.1 mM
Km (FucP): 20 to 40 µM

OC[C@H]1OC(O)[C@@H](O)[C@H](O)[C@@H]1O (stereo partly drawn) [D-altrose]
induction of currents (substrate identification) (wt FucP [1]; pH 8.0): generated signals identifying them as substrates

OC[C@H]1O[C@@H](O[C@H]2[C@H](O)[C@@H](O)[C@H](O)O[C@@H]2CO)[C@H](O)[C@@H](O)[C@H]1O [D-lactose]
Q (pC) wt, PSS transferred charge (wt LacY [3]): 2.6 ± 0.6 (pH 5.0) pC
Kd (E325A LacY): 20 ± 3 mM
Q (pC) Mut, transferred charge (E325A LacY; pH 7.6, saturating substrate (100 mM D-lactose, lactulose; 5 mM TDG)): 3.1 ± 1.8 (pH 7.6) pC
kobs (s^−1) mut (E325A LacY; saturating substrate (100 mM D-lactose, lactulose; 5 mM TDG), kobs = 1/τ, limited by time resolution): 260 ± 60 s⁻¹
Imax (wt LacY [4]): 0.7 ± 0.2 nA
Km (wt LacY [4]; [5]): 5.3 ± 0.5 mM
transport rate (LacY): 30 to 50 s⁻¹
Km (LacY; radioactively labeled sugars, read-out: KM, literature): 500 to 3000 µM
Kd (single-Cys LacY): 1 to 10 mM

OC[C@@H]1OC(O)[C@H](O)[C@@H](O)[C@@H]1O (stereo partly drawn) [L-idose]
induction of currents (substrate identification) (wt XylE): generated signals identifying them as substrates

O[C@@H]1[C@@H](O)[C@@H](O)CO[C@H]1O [L-arabinose]
induction of PSS currents (D46N FucP): do not generate PSS currents
